Results from US20080051418A1, “Arylalkanoic Acid Derivative” (priority 2004, published 2008).
Structures can show the parent of a compound that is named as a salt.

Columns and labels:
[1] = target: T1, PPARγ-RXRα heterodimer (Homo sapiens, UniProt P37231); assay: PPARγ-RXRα heterodimer ligand activity (luciferase reporter); type: cell-based; conditions: PPARγ:RXRα:4ERPP/CHO-K1 cells, 18-24 hr, concentration showing 50% of the maximum induction rate
T1 construct: expressed in transfected cells; host or cells: CHO-K1
T1 sequence (P37231 1-505): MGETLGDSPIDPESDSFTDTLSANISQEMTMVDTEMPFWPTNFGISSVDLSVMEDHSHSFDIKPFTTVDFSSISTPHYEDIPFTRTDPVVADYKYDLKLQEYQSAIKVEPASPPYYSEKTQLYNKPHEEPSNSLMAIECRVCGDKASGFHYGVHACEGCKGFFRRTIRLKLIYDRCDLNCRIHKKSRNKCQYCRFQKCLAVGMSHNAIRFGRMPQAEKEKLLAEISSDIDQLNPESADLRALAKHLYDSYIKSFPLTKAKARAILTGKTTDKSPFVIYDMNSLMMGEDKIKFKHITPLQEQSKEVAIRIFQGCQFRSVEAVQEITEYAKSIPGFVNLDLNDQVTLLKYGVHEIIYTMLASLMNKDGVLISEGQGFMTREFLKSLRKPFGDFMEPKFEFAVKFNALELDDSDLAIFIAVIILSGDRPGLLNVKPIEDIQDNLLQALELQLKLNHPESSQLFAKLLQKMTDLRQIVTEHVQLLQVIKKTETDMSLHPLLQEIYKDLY
T1 sequence (P19793 1-462 partner): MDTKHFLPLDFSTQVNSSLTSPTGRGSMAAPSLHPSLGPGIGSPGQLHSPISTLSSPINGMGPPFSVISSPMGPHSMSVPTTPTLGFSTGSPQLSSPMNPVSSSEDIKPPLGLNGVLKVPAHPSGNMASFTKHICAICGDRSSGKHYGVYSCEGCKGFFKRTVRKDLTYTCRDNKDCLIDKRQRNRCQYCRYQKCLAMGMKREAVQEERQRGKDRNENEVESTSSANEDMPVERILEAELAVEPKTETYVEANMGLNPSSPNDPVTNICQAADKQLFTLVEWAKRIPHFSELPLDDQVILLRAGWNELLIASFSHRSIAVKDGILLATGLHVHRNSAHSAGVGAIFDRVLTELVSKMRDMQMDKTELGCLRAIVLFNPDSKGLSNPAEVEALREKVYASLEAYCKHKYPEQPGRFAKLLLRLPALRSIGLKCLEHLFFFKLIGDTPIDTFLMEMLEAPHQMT
Method: The PPARγ:RXRα:4ERPP/CHO-K1 cells described in WO03/099793 were cultured in a Ham F12 medium [manufactured by Life Technologies, Inc., US] containing 10% calf fetal serum [manufactured by Life Technologies, Inc., US], sown in a 96-well white plate [manufactured by Corning Coster Corporation, US] at 2×10^4 cells/well, and incubated overnight in a carbon dioxide gas incubator at 37° C.
Then, the medium was removed from the 96 well white plate, 80 μl of Ham F12 medium containing 0.1% fatty acid-free bovine serum albumin (BSA) and a test compound (20 μl) were added, and the cells were incubated for 18-24 hr in a carbon dioxide gas incubator at 37° C. The medium was removed, 40 μl of PicaGene 7.5 (manufactured by Wako Pure Chemical Industries, Ltd.) diluted 2-fold with HBSS (HANKS' BALANCED SALT SOLUTION) [manufactured by BIO WHITTAKER, US] was added. After stirring, the luciferase activity was determined using the 1420 ARVO Multilabel Counter [manufactured by PerkinElmer, US].
The induction rate was calculated from the luciferase activity of each test compound based on the luciferase activity of the test compound non-administration group as 1. The test compound concentration and the induction rate were analyzed by PRISM [manufactured by GraphPad Software, Inc., US] to calculate EC50 value (compound concentration showing 50% of the maximum value of induction rate) of the test compound.

SMILES | EC50 [1] [nM] | melting point [°C]
CC(C)Oc1ccc(CCCOc2cc(CCC(=O)O)n(Cc3ccccc3)n2)c(Oc2ncc(C(F)(F)F)cc2Cl)c1 [Example 137, 3-{1-benzyl-3-[3-(2-{[3-chloro-5-(trifluoromethyl)pyridin-2-yl]oxy}-4-isopropoxyphenyl)propoxy]-1H-pyrazol-5-yl}propanoic acid] | 0.61 | 99 to 100
CC(C)c1cc(CCCOc2ncccc2CC(=O)O)n(Cc2ccc(Cl)cc2Cl)n1 [Example 37, (2-{3-[1-(2,4-dichlorobenzyl)-3-isopropyl-1H-pyrazol-5-yl]propoxy}pyridin-3-yl)acetic acid] | 6.4 | 111 to 112
CCS(=O)(=O)CCOc1cc(CCCOc2nn(Cc3ccccc3)cc2CC(=O)O)n(Cc2ccc(Cl)cc2Cl)n1 [Example 98, [1-benzyl-3-(3-{1-(2,4-dichlorobenzyl)-3-[2-(ethylsulfonyl)ethoxy]-1H-pyrazol-5-yl}propoxy)-1H-pyrazol-4-yl]acetic acid] | 5.1 | 100.4 to 101.4
CC(C)Oc1ccc(CCCOc2cc(CCC(=O)O)n(C3CCCCC3)n2)c(Oc2ncc(C(F)(F)F)cc2Cl)c1 [Example 144, 3-{3-[3-(2-{[3-chloro-5-(trifluoromethyl)pyridin-2-yl]oxy}-4-isopropoxyphenyl)propoxy]-1-cyclohexyl-1H-pyrazol-5-yl}propanoic acid] | 3.7 | 114 to 115
CC(C)c1cc(CCCOc2nn(C)cc2CC(=O)O)n(Cc2ccc(Cl)cc2Cl)n1 [Example 33, (3-{3-[1-(2,4-dichlorobenzyl)-3-isopropyl-1H-pyrazol-5-yl]propoxy}-1-methyl-1H-pyrazol-4-yl)acetic acid] | 30 | 67 to 68
Cc1nc(OCCCc2cc(OC(C)C)nn2Cc2ccc(Cl)cc2Cl)c(CC(=O)O)s1 [Example 36, (4-{3-[1-(2,4-dichlorobenzyl)-3-isopropoxy-1H-pyrazol-5-yl]propoxy}-2-methyl-1,3-thiazol-5-yl)acetic acid] | 20 | 75 to 77
CC(C)c1cc(CCCOc2nn(Cc3ccccc3)cc2CC(=O)O)n(Cc2ccc(C(F)(F)F)cc2Cl)n1 [Example 75, [1-benzyl-3-(3-{1-[2-chloro-4-(trifluoromethyl)benzyl]-3-isopropyl-1H-pyrazol-5-yl}propoxy)-1H-pyrazol-4-yl]acetic acid] | 1.9 | 
CC(C)Oc1ccc(CCCOc2nn(C)cc2CCC(=O)O)c(Oc2ncc(C(F)(F)F)cc2Cl)c1 [Example 145, 3-{3-[3-(2-{[3-chloro-5-(trifluoromethyl)pyridin-2-yl]oxy}-4-isopropoxyphenyl)propoxy]-1-methyl-1H-pyrazol-4-yl}propanoic acid] | 2.6 | 
COCCOc1ccc(CCCOc2cc(CCC(=O)O)n(C)n2)c(OCc2ccc(C(F)(F)F)cc2)c1 [Example 169, 3-{3-[3-(4-(2-methoxyethoxy)-2-{[4-(trifluoromethyl)benzyl]oxy}phenyl)propoxy]-1-methyl-1H-pyrazol-5-yl}propanoic acid] |  | 110 to 111
CC(C)c1ncc(CCCOc2nn(Cc3ccccc3)cc2CC(=O)O)c(Oc2ccc(Cl)cc2Cl)n1 [Example 129, (3-{3-[4-(2,4-dichlorophenoxy)-2-isopropylpyrimidin-5-yl]propoxy}-1-benzyl-1H-pyrazol-4-yl)acetic acid] |  | 98 to 99
CC(C)c1cc(CCCOc2nn(Cc3ccccc3)cc2CC(=O)O)n(Cc2ccc(Cl)cc2Cl)n1 [Example 34, (1-benzyl-3-{3-[1-(2,4-dichlorobenzyl)-3-isopropyl-1H-pyrazol-5-yl]propoxy}-1H-pyrazol-4-yl)acetic acid 1/2 calcium salt] | 1.7 | 
CC(C)Oc1ccc(CCCCOc2cc(CCC(=O)O)n(C)n2)c(Oc2ncc(C(F)(F)F)cc2Cl)c1 [Example 155, 3-{3-[4-(2-{[3-chloro-5-(trifluoromethyl)pyridin-2-yl]oxy}-4-isopropoxyphenyl)butoxy]-1-methyl-1H-pyrazol-5-yl}propanoic acid] |  | 156 to 157
CN(C)CCOc1cc(CCCOc2nn(Cc3ccccc3)cc2CC(=O)O)n(Cc2ccc(Cl)cc2Cl)n1 [Example 96, [1-benzyl-3-(3-{1-(2,4-dichlorobenzyl)-3-[2-(dimethylamino)ethoxy]-1H-pyrazol-5-yl}propoxy)-1H-pyrazol-4-yl]acetic acid] |  | 78.3 to 80.8
CCCOc1cc(CCCOc2nn(Cc3ccccc3)cc2CC(=O)O)n(Cc2ccc(F)cc2F)n1 [Example 90, (1-benzyl-3-{3-[1-(2,4-difluorobenzyl)-3-propoxy-1H-pyrazol-5-yl]propoxy}-1H-pyrazol-4-yl)acetic acid] |  | 94 to 95
CCc1cccc(CC(=O)O)c1OCCCc1cn(Cc2nc(-c3ccccc3)oc2C)nc1C(C)C [Example 54, [3-ethyl-2-(3-{3-isopropyl-1-[(5-methyl-2-phenyl-1,3-oxazol-4-yl)methyl]-1H-pyrazol-4-yl}propoxy)phenyl]acetic acid] |  | 94 to 95

The remaining lines, values ahead:

EC50 [1] [nM] | melting point [°C] | SMILES
18 | 79 to 82 | CCCOc1cc(CCCOc2c(CC(=O)O)cccc2OC)n(Cc2ccccc2OC)n1 [Example 83, (2-{3-[1-(2-methoxybenzyl)-3-propoxy-1H-pyrazol-5-yl]propoxy}-3-methoxyphenyl)acetic acid]
42 | 90 to 91 | CC(C)Oc1cc(CCCOc2ncccc2CC(=O)O)n(Cc2ccc(F)cc2Cl)n1 [Example 93, (2-{3-[1-(2-chloro-4-fluorobenzyl)-3-isopropoxy-1H-pyrazol-5-yl]propoxy}pyridin-3-yl)acetic acid]
3.2 |  | CCCOc1cc(CCCOc2c(CC(=O)O)cccc2OC)n(C(C)c2ccc(Cl)cc2Cl)n1 (stereo not drawn) [Example 19, [2-(3-{1-[1-(2,4-dichlorophenyl)ethyl]-3-propoxy-1H-pyrazol-5-yl}propoxy)-3-methoxyphenyl]acetic acid]
39 |  | CC(C)Oc1cc(CCCOc2nn(Cc3ccccc3)cc2CC(=O)O)n(Cc2ccc(Cl)cc2OC(C)C)n1 [Example 71, (1-benzyl-3-{3-[1-(4-chloro-2-isopropoxybenzyl)-3-isopropoxy-1H-pyrazol-5-yl]propoxy}-1H-pyrazol-4-yl)acetic acid]
2.6 | 120 to 122 | CC(C)Oc1cc(CCCOc2ccc3ccccc3c2CC(=O)O)n(Cc2ccc(Cl)cc2Cl)n1 [Example 85, (2-{3-[1-(2,4-dichlorobenzyl)-3-isopropoxy-1H-pyrazol-5-yl]propoxy}-1-naphthyl)acetic acid]
3 | 81 to 82 | Cc1cc(Cl)ccc1Cn1nc(OC(C)C)cc1CCCOc1nn(Cc2ccccc2)cc1CC(=O)O [Example 73, (1-benzyl-3-{3-[1-(4-chloro-2-methylbenzyl)-3-isopropoxy-1H-pyrazol-5-yl]propoxy}-1H-pyrazol-4-yl)acetic acid]
 | 60 to 62 | CC(C)Oc1ccc(CCCOc2cc(CCC(=O)O)n(-c3ccccc3)n2)c(Oc2ccc(Cl)cc2Cl)n1 [Example 171, 3-(3-{3-[2-(2,4-dichlorophenoxy)-6-isopropoxypyridin-3-yl]propoxy}-1-phenyl-1H-pyrazol-5-yl)propanoic acid]
 | 129 to 130 | COc1cccc(CC(=O)O)c1OCc1cc(OC(C)C)nn1Cc1ccc2ccccc2n1 [Example 8, (2-{[3-isopropoxy-1-(quinolin-2-ylmethyl)-1H-pyrazol-5-yl]methoxy}-3-methoxyphenyl)acetic acid]
